Assay results from US7534871B2, “Preparation and use of carbohydrate-based bicyclic ring structures with antimicrobial and cytostatic activity” (Kemin Pharma B.V.B.A., priority 2004, dated 2009).

How the values were obtained:
[1] = test system: E. faecalis ATTC29212 LMG 8222; assay: Anti-bacterial activity, Bioscreen C growth curve: E. faecalis; type: cell-based; conditions: Enterococcus faecalis, LMG8222, 35° C., 16 hours, negative control = 100, read-out: % of growth at 25 PPM compared to the negative control, E. faecalis ATTC29212 LMG 8222
Description: (§1) For the determination of the anti-bacterial and anti-fungal activity the Bioscreen C Analyser Labsystems, Finland, was used. This is an automated reader-incubator. It measures growth continuously by vertical photometry (optical density), processes the data and provides a print out of the results. The area under the growth curve is automatically determined via the Biolink software.
(§2) The inoculum size of the bacteria is standardized to approximately 5×10^5 CFU/ml.
(§3) For bacteria, the 100-honey-well plates containing test chemical, Mueller-Hinton broth and inoculum (=sample) are incubated at 35° C. for 16 hours. Also wells without inoculum are incubated (=blanco). Yeasts are incubated 35° C. for 24 hours in RPMI 1640+MOPS buffer at 165 mM. Moulds also in RPMI 1640+MOPS buffer at 165 mM are incubated 25° C. for 5 days. All micro-organisms are screened against a known concentration of the reference antibiotics or antimycotics such as vancomycin, penicillin G, gentamicin or amphotericin B. The growth curve and the area under the growth curve can be determined using the Biolink software; this is illustrated in FIG. 1.
(§4) The area of the blanco is subtracted from the area of the sample, this number (delta) gives us an indication of the biological activity of the molecules tested and can be expressed as a % of growth at a specific dose compared to a negative control that has a value of 100, illustrated in FIG. 2. Screening of each dose of a specific compound is repeated 5 times. The dose used for all new molecules in all tests is 25 PPM or 25 μg/ml.
(§5) In Table 4 the results of the anti-bacterial activity is given for the new molecules. The micro-organisms used are Staphylococcus aureus, MRSA, VRE, Enterococcus faecalis, Salmonella typhimurium and Pseudomonas aeruginosa.

VRE ATCC700221 = assay: Anti-bacterial activity, Bioscreen C growth curve: VRE; type: cell-based, vancomycin-resistant Enterococcus (VRE); conditions: Enterococcus, 35° C., 16 hours, negative control = 100, read-out: % of growth at 25 PPM compared to the negative control, VRE ATCC700221
Description: as §1, §2, §3, §4, §5

[2] = test system: Microsporum gypseum IHEM 3999 - ATCC 14683; assay: Anti-fungal activity, Bioscreen C growth curve: Microsporum gypseum (mold); type: cell-based; conditions: for activity at 25 ppm: Nannizzia gypsea, ATCC14683, 120 h, 25° C., 5 days, negative control = 100, read-out: % of growth at a dose of 25 PPM compared to the negative control, Microsporum gypseum IHEM 3999 - ATCC 14683
Description: as §1
The inoculum size of the mould is standardized to 0.4-5.0×10^4 CFU/ml.
as §3, §4
(§6) In Table 5 the anti-fungal activity is given for the new molecules. The micro-organisms used were Candida albicans (a typical yeast) and Microsporum gypseum (a typical mold).
as §1, with “Also for” for “For”, “the” for “the anti-bacterial and”, “Labsystems Oy, Finland” for “Labsystems, Finland,”, “used.” for “used. This is an automated reader-incubator.”
(§7) The inoculum size of the yeast is standardized to 0.5-2.5×10^3 CFU/ml. The inoculum size of the mould is standardized to 0.4-5.0×10^4 CFU/ml. Yeasts are incubated 35° C. for 24 hours in RPMI 1640+MOPS buffer at 165 mM. Moulds also in RPMI 1640+MOPS buffer at 165 mM are incubated 25° C. for 5 days.
(§8) As a control, all micro-organisms are screened against some reference antibiotics with known MIC. Screening of each dose of a specific compound is repeated 5 times.

[3] = test system: S. typhimurium ATTC700408; assay: Anti-bacterial activity, Bioscreen C growth curve: S. typhimurium; type: cell-based; conditions: Salmonella enterica, LMG16217 / TYPHIMURIUM, 35° C., 16 hours, negative control = 100, read-out: % of growth at 25 PPM compared to the negative control, S. typhimurium ATTC700408 LMG16217
Description: as §1, §2, §3, §4, §5

[4] = test system: S. aureus ATTC29213 LMG10147; assay: Anti-bacterial activity, Bioscreen C growth curve: S. aureus; type: cell-based; conditions: Staphylococcus aureus, 35° C., 16 hours, negative control = 100, read-out: % of growth at 25 PPM compared to the negative control, S. aureus ATTC29213 LMG10147
Description: as §1, §2, §3, §4, §5

[5] = test system: Candida albicans IHEM 10284 - ATCC 24433; assay: Anti-fungal activity, Bioscreen C growth curve: Candida albicans (yeast); type: cell-based; conditions: Candida albicans, ATCC24433; 25 PPM; 35° C., 24 hours; negative control = 100; read-out: % of growth at a dose of 25 PPM compared to the negative control, Candida albicans IHEM 10284 - ATCC 24433
Description: as §1
The inoculum size of the yeast is standardized to 0.5-2.5×10^3 CFU/ml.
as §3, §4, §6
as §1, with “Also for” for “For”, “the” for “the anti-bacterial and”, “Labsystems Oy, Finland” for “Labsystems, Finland,”, “used.” for “used. This is an automated reader-incubator.”
as §7, §8

[6] = test system: P. aeruginosa ATCC27853 LMG16217; assay: Anti-bacterial activity, Bioscreen C growth curve: P. aeruginosa; type: cell-based, Pseudomonas aeruginosa; conditions: Pseudomonas aeruginosa; 25 PPM; 35° C., 16 hours; negative control = 100; read-out: % of growth at 25 PPM compared to the negative control, P. aeruginosa ATCC27853 LMG16217
Description: as §1, §2, §3, §4, §5

MRSA ATCC33591 = assay: Anti-bacterial activity, Bioscreen C growth curve: MRSA; type: cell-based, methicillin-resistant Staphylococcus aureus (MRSA); conditions: for activity at 25 ppm: Staphylococcus aureus, ATCC 33591 / LMG10147 / MRSA, 35° C., 16 hours, negative control = 100, read-out: % of growth at 25 PPM compared to the negative control, MRSA ATCC33591 LMG10147
Description: as §1, §2, §3, §4, §5

Row | SMILES | activity at 25 ppm [1] [%] | activity at 25 ppm (VRE ATCC700221) [%] | activity at 25 ppm [2] [%] | activity at 25 ppm [3] [%] | activity at 25 ppm [4] [%] | activity at 25 ppm [5] [%] | activity at 25 ppm [6] [%] | activity at 25 ppm (MRSA ATCC33591) [%] | anti-mold activity, in words ([2]; conclusion in text on Table 5) | anti-bacterial activity against gram-positive bacteria including MRSA, in words (MRSA ATCC33591; conclusion on Table 4)
1 | CO[C@@H]1[C@@H](OC)[C@H](c2ccccc2)O[C@@H]2COC(=O)CCC3OC3CCC(=O)O[C@@H]12 (stereo partly shown) [KPE00001039] | 94.1 | 93 | 77 | 97 | 97.7 | 96.4 | 91.3 | 102 |  | 
2 | CO[C@H]1[C@H](OC)[C@H](OC)COC/C=C/COC[C@H]2OC[C@H](OC)[C@@H](OC)[C@@H]2OC(=O)NC[C@@H]1OC [KPE00001056] | 111 | 91 | 77 | 93.7 | 105 | 101 | 106 | 113 |  | 
3 | CO[C@H]1[C@@H]2OC(=O)CC/C=C/CCC(=O)OC[C@H]2OC[C@@H]1OC [KPE00001006] | 92.5 | 96.5 | 62 | 94.6 | 94.7 | 93.1 | 87.3 | 99.7 |  | 
4 | CO[C@H]1[C@@H]2OC(=O)CCCCCCC(=O)OC[C@H]2OC[C@@H]1OC [KPE00001010] | 90.6 | 93 | 60 | 88.8 | 102 | 95.5 | 80.7 | 110 |  | 
5 | CO[C@@H]1[C@@H](OC)[C@H](O)[C@@H](CO)O[C@H]1Cc1ccccc1 [KPE00001020] | 98.4 | 99 | 78 | 92.3 | 97.9 | 91 | 94.4 | 99 |  | 
6 | CO[C@@H]1[C@@H](OC)[C@H](Sc2ccccc2)O[C@@H]2COCCC/C=C\CCCO[C@@H]12 [KPE00001009.2] | 85.5 | 86.4 | 54 | 90.1 | 100 | 103 | 67.6 | 111 | best anti-mold activity | 
7 | CO[C@@H]1[C@@H](OC)[C@H](Sc2ccccc2)O[C@@H]2COCCC/C=C/CCCO[C@@H]12 [KPE00001009.1] | 87.5 | 82 | 60 | 90.1 | 98.3 | 93.9 | 91.6 | 107 |  | 
8 | CO[C@@H]1[C@@H](OC)[C@H](c2ccccc2)O[C@@H]2COC(=O)CCC=CCCC(=O)O[C@@H]12 [KPE00001040] | 85.1 | 83.4 | 64 | 89 | 94 | 101 | 78.5 | 99.7 |  | 
9 | CO[C@@H]1[C@@H](OC)[C@H](Sc2ccccc2)O[C@@H]2COC(=O)CCC(O)C(O)CCC(=O)O[C@@H]12 (stereo partly shown) [KPE00001007] | 97 | 93 | 76 | 89.7 | 94.9 | 94.7 | 86.2 | 97.8 |  | 
10 | CO[C@@H]1[C@@H](OC)[C@H](O)[C@@H](CO)O[C@H]1Sc1ccccc1 [KPE00001011] | 89 | 79 | 76.4 | 92.1 | 89 | 79.3 | 85 | 90.5 |  | 
11 | CO[C@@H]1[C@@H](OC)[C@H](Sc2ccccc2)O[C@@H]2CNC(=O)CC/C=C/CCCO[C@@H]12 [KPE00001042] | 93.3 | 96 | 79 | 98 | 97 | 90.3 | 94.7 | 104 |  | 
12 | O=C1CC/C=C/CCC(=O)O[C@H]2[C@H](OCc3ccccc3)[C@@H](OCc3ccccc3)[C@H](Sc3ccccc3)O[C@@H]2CO1 [KPE00001037] | 97.6 | 90 | 73 | 91 | 98.5 | 87.4 | 89.3 | 107 |  | 
13 | CO[C@@H]1[C@@H](OC)[C@H](Sc2ccccc2)O[C@@H]2CNC(=O)CCC=CCCC(=O)O[C@@H]12 [KPE00001041] | 68.2 | 93 | 81 | 96.6 | 56.7 | 78.1 | 83.3 | 75.6 |  | good anti-bacterial activity
